The text below walks through data of article PMC3265250 (Chemotherapy Research and Practice, 2011).

One test deals with S. aureus ATCC 6538P. As to the kind of experiment: MIC, microbroth dilution, referential strain ATCC 6538P. The following applies: ATCC 6538P, microbroth dilution, MHB II, 5 × 10^5 CFU/mL, 18 h at 37°C, triplicate. It is filed as cell-based, Staphylococcus aureus. On the procedure: (§1) A total number of 24 SA strains were obtained from patients with erythrodermia and 3 reference SA ones from the American Type Culture Collection: 6538P ATCC, 9144 ATCC, and 25923 ATCC (Institute of Experimental Therapy, Wroclaw, Poland). […] Polypropylene 96-well plates (Sigma-Aldrich) were incubated for 18 h at 37°C. MIC was taken as the lowest drug concentration at which a noticeable growth was inhibited. […] The experiments were performed in triplicate.
(In general: Dilution methods test growth across graded concentrations, often in twofold steps.)

For the next test, the system named is S. aureus ATCC 9144. The test is described as follows: MIC, microbroth dilution, referential strain ATCC 9144. It is filed as cell-based, Staphylococcus aureus. The following applies: ATCC 9144, microbroth dilution, MHB II, 5 × 10^5 CFU/mL, 18 h at 37°C, triplicate.
The subject of the next test is S. aureus ATCC 25923. As to the kind of experiment: MIC, microbroth dilution, referential strain ATCC 25923. The format is cell-based, Staphylococcus aureus. The following applies: ATCC 25923, microbroth dilution, MHB II, 5 × 10^5 CFU/mL, 18 h at 37°C, triplicate. The protocol:
as §1

In test [1] the test system is Superantigen negative S. aureus (10). As to conditions: for MIC 50% / MIC 90% / MIC Range / MBC Range: superantigen negative clinical isolates (10), triplicate; for MIC 50% / MIC 90% / MIC Range: microbroth dilution, MHB II, 5 × 10^5 CFU/mL, 18 h at 37°C; for MBC Range: more than 99.9% reduction of the initial inoculums.
Test [2] relates to Superantigen positive S. aureus (14). The following applies: for MIC 50% / MIC 90% / MIC Range / MBC Range: superantigen positive clinical isolates (14), triplicate; for MIC 50% / MIC 90% / MIC Range: microbroth dilution, MHB II, 5 × 10^5 CFU/mL, 18 h at 37°C; for MBC Range: more than 99.9% reduction of the initial inoculums.
Another test concerns clinical isolates of SA. The following applies: 18 h.
Test [3] relates to Superantigen negative S. aureus (10). The test is described as follows: microbe, parasite or virus in culture. As to conditions: Staphylococcus aureus.
Test [4] concerns Superantigen positive S. aureus (14). The test is described as follows: microbe, parasite or virus in culture. As to conditions: Staphylococcus aureus.

Converted amounts (≈) assume the structure as drawn. Where two headings read alike, the source gives them in different places. Positions of bridges follow the written chain, without caps; N, C: chain ends. Residues, ends and D or L forms follow the SMILES beside them.

As to `CC(C)C[C@H](NC(=O)[C@H](CCCNC(=N)N)NC(=O)CNC(=O)CNC(=O)[C@@H](N)CCCNC(=N)N)C(=O)N[C@H]1CSSC[C@@H](C(=O)N[C@H](C(=O)NCC(=O)N[C@@H](CCCNC(=N)N)C(N)=O)C(C)C)NC(=O)[C@H](C(C)C)NC(=O)[C@@H]2CSSC[C@H](NC(=O)[C@H](Cc3ccc(O)cc3)NC1=O)C(=O)N[C@@H](CCCNC(=N)N)C(=O)N[C@@H](CCCNC(=N)N)C(=O)N[C@@H](CCCNC(=N)N)C(=O)N[C@@H](Cc1ccccc1)C(=O)N2` [Protegrin 1, protegrin 1], the MIC against S. aureus ATCC 6538P worked out at 4 µg/mL (≈ 1.86 µM). Moreover, the MIC against S. aureus ATCC 9144 was 2 µg/mL (≈ 0.928 µM). Also, the MIC in the test on S. aureus ATCC 25923 stood at 4 µg/mL (≈ 1.86 µM). In test [1], the “MBC 50%” value amounted to 4 µg/mL (≈ 1.86 µM), the “MBC 90%” value was 8 µg/mL (≈ 3.71 µM), the “MIC 50%” value turned out to be 2 µg/mL (≈ 0.928 µM) and the “MIC 90%” value was found to be 4 µg/mL (≈ 1.86 µM). For the same compound, in test [1], the “MIC Range” value was in the range of 1 to 4 µg/mL and the “MBC Range” value fell in the range of 2 to 8 µg/mL. Further, in test [2], the “MBC 50%” value turned out to be 4 µg/mL (≈ 1.86 µM), the “MBC 90%” value worked out at 8 µg/mL (≈ 3.71 µM), the “MIC 50%” value was 2 µg/mL (≈ 0.928 µM) and the “MIC 90%” value turned out to be 4 µg/mL (≈ 1.86 µM). In test [2], the “MIC Range” value lay within 1 to 4 µg/mL and the “MBC Range” value was 2 to 8 µg/mL. For the same compound, the “MIC values (range)” value with clinical isolates of SA fell in the range of 1 to 8 µg/mL.

In the test on S. aureus ATCC 6538P, `CCCCCCCCCCCCCCCC(=O)N[C@@H](CCCCN)C(=O)N[C@@H](CCCCN)C(N)=O` [Lipopeptide, Pal-KK-NH2] came in with an MIC of 2 µg/mL (≈ 3.91 µM). For the same compound, in the test with S. aureus ATCC 9144, the MIC was 2 µg/mL (≈ 3.91 µM). The MIC against S. aureus ATCC 25923 was determined as 4 µg/mL (≈ 7.82 µM). Moreover, in test [1], the “MBC 50%” value is 4 µg/mL (≈ 7.82 µM), the “MBC 90%” value was 8 µg/mL (≈ 15.6 µM), the “MIC 50%” value came to 2 µg/mL (≈ 3.91 µM) and the “MIC 90%” value was found to be 4 µg/mL (≈ 7.82 µM). For the same compound, in test [1], the “MIC Range” value is 1 to 8 µg/mL and the “MBC Range” value lay in the range of 2 to 8 µg/mL. In addition, in test [2], the “MBC 50%” value was found to be 4 µg/mL (≈ 7.82 µM), the “MBC 90%” value amounted to 8 µg/mL (≈ 15.6 µM), the “MIC 50%” value amounted to 2 µg/mL (≈ 3.91 µM) and the “MIC 90%” value turned out to be 4 µg/mL (≈ 7.82 µM). For the same compound, in test [2], the “MIC Range” value is 1 to 8 µg/mL and the “MBC Range” value lay within 2 to 8 µg/mL. Further, in the test with clinical isolates of SA, the “MIC values (range)” value fell in the range of 1 to 8 µg/mL.

As for `CC[C@H](C)[C@@H]1NC(=O)CNC(=O)[C@H](CCCNC(=N)N)NC(=O)[C@H](Cc2ccc(O)cc2)NC(=O)[C@@H]2CSSC[C@H](NC1=O)C(=O)N[C@@H](Cc1ccc(O)cc1)C(=O)N[C@@H](CCCNC(=N)N)C(=O)N[C@@H](CCCCN)C(=O)N[C@H](C(=O)N[C@@H](CCCNC(=N)N)C(N)=O)CSSC[C@H](NC(=O)[C@H](Cc1c[nH]c3ccccc13)NC(=O)[C@@H](N)CCCCN)C(=O)N[C@@H](Cc1ccccc1)C(=O)N[C@@H](CCCNC(=N)N)C(=O)N[C@@H](C(C)C)C(=O)N2` [Tachyplesin 3, tachyplesin 3] (H-KWCFRVCYRGICYRKCR-NH2; disulfide 3-16, 7-12 (inferred); N-terminus and C-terminus assumed), the “MBC 50%” value in test [1] and in test [2] was 2 µg/mL (≈ 0.895 µM) throughout. Further, the “MBC 90%” value in test [1] and in test [2] was 4 µg/mL (≈ 1.79 µM) throughout. In the test on clinical isolates of SA, the “MIC values (range)” value was 1 to 8 µg/mL.

Turning to `CO[C@H]1/C=C/O[C@@]2(C)Oc3c(C)c(O)c4c(O)c(c(/C=N/N5CCN(C)CC5)c(O)c4c3C2=O)NC(=O)/C(C)=C\C=C\[C@H](C)[C@H](O)[C@@H](C)[C@@H](O)[C@@H](C)[C@H](OC(C)=O)[C@@H]1C` [Rifampicin, rifampicin], the MIC in the test on S. aureus ATCC 6538P (Staphylococcus aureus, ATCC6538P, read-out: MIC) is 0.25 µg/mL (≈ 0.304 µM); in the test on S. aureus ATCC 9144 (Staphylococcus aureus, ATCC9144, read-out: MIC), 0.25 µg/mL (≈ 0.304 µM); in the test on S. aureus ATCC 25923 (Staphylococcus aureus, ATCC25923, read-out: MIC), 0.25 µg/mL (≈ 0.304 µM); in test [3] (18 h, read-out: MIC Range) it was 0.25 to 1 µg/mL (≈ 0.304 to 1.22 µM); in test [4] (18 h, read-out: MIC Range), 0.25 to 1 µg/mL (≈ 0.304 to 1.22 µM). Moreover, the “MBC Range” value in test [1] fell in the range of 1 to 2 µg/mL; in test [2] it was 0.5 to 2 µg/mL. The MIC50 in test [3] (18 h) and in test [4] (18 h) was 0.25 µg/mL (≈ 0.304 µM) each time. Moreover, the MIC90 in test [3] (18 h) was found to be 1 µg/mL (≈ 1.22 µM); in test [3] (18 h, read-out: MICs 90%) it was 1 µg/mL (≈ 1.22 µM); in test [4] (18 h), 1 µg/mL (≈ 1.22 µM); in test [4] (18 h, read-out: MICs 90%), 1 µg/mL (≈ 1.22 µM). Further, the MBC was 0.25 µg/mL (≈ 0.304 µM) in test [3] (read-out: MBC 50%), 1 µg/mL (≈ 1.22 µM) in test [3] (read-out: MBC 90%), 1 µg/mL (≈ 1.22 µM) in test [4] (read-out: MBC 50%) and 2 µg/mL (≈ 2.43 µM) in test [4] (read-out: MBC 90%).

In the test on S. aureus ATCC 6538P, `CCCCCCCCCC(=O)N[C@@H](Cc1c[nH]c2ccccc12)C(=O)N[C@H](CC(N)=O)C(=O)N[C@@H](CC(=O)O)C(=O)N[C@@H]1C(=O)NCC(=O)N[C@@H](CCCN)C(=O)N[C@@H](CC(=O)O)C(=O)N[C@H](C)C(=O)N[C@@H](CC(=O)O)C(=O)NCC(=O)N[C@H](CO)C(=O)N[C@@H]([C@H](C)CC(=O)O)C(=O)N[C@@H](CC(=O)c2ccccc2N)C(=O)O[C@@H]1C` [Daptomycin, daptomycin] returned an MIC of 2 µg/mL (≈ 1.23 µM). Moreover, in the test with S. aureus ATCC 9144, the MIC stood at 2 µg/mL (≈ 1.23 µM). Besides, the MIC against S. aureus ATCC 25923 was found to be 2 µg/mL (≈ 1.23 µM). For the same compound, in test [1], the “MBC 50%” value was found to be 2 µg/mL (≈ 1.23 µM), the “MBC 90%” value was determined as 2 µg/mL (≈ 1.23 µM), the “MIC 50%” value turned out to be 1 µg/mL (≈ 0.617 µM) and the “MIC 90%” value amounted to 2 µg/mL (≈ 1.23 µM). Moreover, in test [1], the “MIC Range” value was in the range of 1 to 4 µg/mL and the “MBC Range” value is 1 to 4 µg/mL. In test [2], the “MBC 50%” value was found to be 2 µg/mL (≈ 1.23 µM), the “MBC 90%” value worked out at 4 µg/mL (≈ 2.47 µM), the “MIC 50%” value came out at 1 µg/mL (≈ 0.617 µM) and the “MIC 90%” value worked out at 2 µg/mL (≈ 1.23 µM). In addition, in test [2], the “MIC Range” value was in the range of 1 to 4 µg/mL and the “MBC Range” value fell in the range of 1 to 4 µg/mL. Besides, the “MICs values (range)” value against clinical isolates of SA fell in the range of 1 to 4 mg/L.
